Values quoted from earlier work, collected in patent US8512311B2, “Augmentation of intraluminal microvessel formation to facilitate guide wire crossing in chronic total occlusions” (priority 2004, dated 2013).

Test system: venous thrombi
Details: injection into venous thrombi, rat model, compared to controls

**Q.** Which “increase in thrombus recanalization” value does the source give for “vascular endothelial growth factor [VEGF protein]” here?
**A.** Its value is “two-fold”.
